The record followed here is patent publication US20050009840A1 (SUGEN, INC., priority 2003, published 2005).

Read-outs that look alike come from different tables or passages of the source.

Broadly, the inhibition is the relative decrease from the control value, in per cent. Usually Ki stands for the equilibrium dissociation constant of an inhibitor or competing ligand from its target.

For this assay, the target named is T1, HGFR (Homo sapiens, UniProt P08581).
T1 construct: purchased Upstate 14-526
T1 sequence (P08581 974-1390 limits assumed): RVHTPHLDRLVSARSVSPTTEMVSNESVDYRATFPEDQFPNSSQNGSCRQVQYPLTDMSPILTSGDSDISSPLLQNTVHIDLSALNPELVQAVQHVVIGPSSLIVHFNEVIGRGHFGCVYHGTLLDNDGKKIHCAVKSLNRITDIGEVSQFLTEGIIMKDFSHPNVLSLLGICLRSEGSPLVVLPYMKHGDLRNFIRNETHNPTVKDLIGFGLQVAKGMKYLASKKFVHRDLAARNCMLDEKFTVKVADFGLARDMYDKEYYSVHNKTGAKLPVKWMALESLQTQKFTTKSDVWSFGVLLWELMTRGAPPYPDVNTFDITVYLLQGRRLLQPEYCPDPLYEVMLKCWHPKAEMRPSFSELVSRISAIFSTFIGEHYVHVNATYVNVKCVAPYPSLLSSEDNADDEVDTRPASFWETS
As to the kind of experiment: HGFR continuous-coupled spectrophotometric assay. Format: biochemical. Particulars: for inhibition at 1 pM / inhibition at 1 µM: read-out: % Inhibition (percent c-MET inhibition); for inhibition at 0.05 µM: at 50 nM, Table 5, library procedure 40, read-out: % inhibition (percent c-MET inhibition); for Ki: Table 3, column 'Ki (μM) or I (%)': cells without % sign, read-out: Ki; for inhibition at 1 µM: Table 8, library procedure 43.

On to `CCS(=O)(=O)N1CCN(C(=O)c2cnc(N)c(OCc3c(Cl)cccc3Cl)c2)CC1` [Example L-282], for which, where the note is “Table 6, library procedure 41”, the inhibition at 1 pM was found to be 22%.
As for `C[C@H](Oc1cc(-c2ccc(C(=O)NC[C@@H]3CCCC[C@H]3O)cc2)cnc1N)c1c(Cl)ccc(F)c1Cl` [Example L-84], the inhibition at 0.05 µM was determined as 67%.
For `Nc1ncc(-c2ccc(C(=O)N3CCC(N4CCCC4)CC3)cc2)cc1OCc1ccc(C(=O)NCCc2ccccn2)cc1`, for the setting “Table 7, library procedure 42”, the inhibition at 1 pM was 11%.
With `C=Cc1cnc(N)c(OC(C)c2c(Cl)ccc(F)c2Cl)c1` (stereo not shown) [Example I-606, 3-[1-(2,6-Dichloro-3-fluoro-phenyl)-ethoxy]-5-vinyl-pyridin-2-ylamine], the Ki came to 0.655 µM.
Take `CS(=O)(=O)CCN1CCN(C(=O)c2cnc(N)c(OCc3c(Cl)cccc3Cl)c2)CC1` [Example L-299]: the inhibition at 1 pM (Table 6, library procedure 41) is 25%.
For the compound `Cc1nc(COc2cc(-c3ccc(C(=O)N4CC(C)NC(C)C4)cc3)cnc2N)n(C)n1` (stereo not shown), the inhibition at 1 µM came out at 13%.
Take `Nc1ncc(C(=O)NCC(O)c2ccc(O)cc2)cc1OCc1c(Cl)cccc1Cl` [Example L-251]: the inhibition at 1 pM (Table 6, library procedure 41) is 29%.
For `CC1CN(C(=O)c2ccc(-c3cnc(N)c(OCc4ccc(S(=O)(=O)N5CCOCC5)cc4)c3)cc2)CC(C)N1` (stereo not shown), the inhibition at 1 µM is 13%.
As to `NC(=O)CCNC(=O)c1cnc(N)c(OCc2c(Cl)cccc2Cl)c1` [Example L-253], the inhibition at 1 pM (Table 6, library procedure 41) came out at 28%.
The same measure, in the same setting: the figure for `Nc1ncc(C(=O)N2CCS(=O)(=O)CC2)cc1OCc1c(Cl)cccc1Cl` [Example L-269] is 10%.
As to `COCOc1ccc(S(=O)(=O)c2ccc(COc3cc(-c4ccc(C(=O)N5CCC(N6CCCC6)CC5)cc4)cnc3N)cc2)cc1`, the inhibition at 1 pM (Table 7, library procedure 42) is 18%.
Turning to `Nc1ncc(-c2ccc(C(=O)N3CCC(N4CCCC4)CC3)cc2)cc1OCc1ccc(C(=O)NC2CCN(Cc3ccccc3)C2)cc1` (stereo not shown), the inhibition at 1 pM (Table 7, library procedure 42) turned out to be 24%.
Consider `Cc1noc(C)c1COc1cc(-c2ccc(C(=O)N3CCC(N4CCCC4)CC3)cc2)cnc1N`, for which the inhibition at 1 pM (Table 7, library procedure 42) stood at 10%.
For the compound `Nc1ncc(-c2ccc(C(=O)N3CCC(N4CCCC4)CC3)cc2)cc1OCc1cc(Br)cc(Br)c1`, under “Table 7, library procedure 42”, the inhibition at 1 pM stood at 45%.
In the case of `CC(Oc1cc(-c2ccc(C(=O)N3C[C@@H](C)N[C@@H](C)C3)c(F)c2)cnc1N)c1c(Cl)ccc(F)c1Cl` (stereo partly shown) [Example I-551, (4-{6-Amino-5-[1-(2,6-dichloro-3-fluoro-phenyl)-ethoxy]-pyridin-3-yl}-2-fluoro-phenyl)-(dimethyl-piperazin-1-yl)-methanone], the inhibitory constant (Ki) was determined as 0.091 µM.
Take `Cc1cc(=O)n2nc(COc3cc(-c4ccc(C(=O)N5CCC(N6CCCC6)CC5)cc4)cnc3N)nc2[nH]1`: where the note is “Table 7, library procedure 42”, the inhibition at 1 pM is 18%.
Turning to `Nc1ncc(-c2ccc(C(=O)N3CCC(N4CCCC4)CC3)cc2)cc1OCc1nc(-c2cccc(C(=O)Nc3ccc(F)cc3)c2)no1`, the inhibition at 1 pM (Table 7, library procedure 42) was 64%.
As for `Nc1ncc(-c2ccc(C(=O)N3CCC(N4CCCC4)CC3)cc2)cc1OCc1cccc(C(=O)NCc2ccncc2)c1`, where the note is “Table 7, library procedure 42”, the inhibition at 1 pM came to 10%.
Consider `CC1CN(C(=O)c2ccc(-c3cnc(N)c(OCc4ccc5nc(C(F)(F)F)cc(OC(C)C)c5c4)c3)cc2)CC(C)N1` (stereo not shown), for which the inhibition at 1 µM worked out at 17%.
In the case of `CC(Oc1cc(-c2ccc(C(=O)N3CCNC(=O)C3)cc2)cnc1N)c1c(Cl)ccc(F)c1Cl` [Example L-168], the inhibition at 0.05 µM came to 90%.
For `COC(=O)c1ccc(COc2cc(-c3ccc(C(=O)N4CCC(N5CCCC5)CC4)cc3)cnc2N)c(OC)c1`, the inhibition at 1 pM (Table 7, library procedure 42) worked out at 15%.
Still for that read-out and setting: the figure for `Nc1ncc(-c2ccc(C(=O)N3CCC(N4CCCC4)CC3)cc2)cc1OCc1cccc(C(=O)NC2CCN(Cc3ccccc3)CC2)c1` is 13%.
As to `CC1CN(C(=O)c2ccc(-c3cnc(N)c(OCc4c(-c5ccccc5)nn(C)c4Cl)c3)cc2)CC(C)N1` (stereo not shown), the inhibition at 1 µM was found to be 18%.
With `N#CC1(c2ccccc2)CCN(C(=O)c2cnc(N)c(OCc3c(Cl)cccc3Cl)c2)CC1` [Example L-193], where the note is “Table 6, library procedure 41”, the inhibition at 1 pM is 37%.
Regarding `CC1CN(C(=O)c2ccc(-c3cnc(N)c(OCc4cccc(OC(F)(F)F)c4)c3)cc2)CC(C)N1` (stereo not shown), the inhibition at 1 µM was found to be 17%.
On to `COc1ccc(-c2nc(COc3cc(-c4ccc(C(=O)N5CCC(N6CCCC6)CC5)cc4)cnc3N)no2)cc1`, for which the inhibition at 1 pM (Table 7, library procedure 42) came to 10%.
On the same count and under the same terms, the figure for `Nc1ncc(-c2ccc(C(=O)N3CCC(N4CCCC4)CC3)cc2)cc1OCc1cccc(C(=O)Nc2ccc(N3CCCCC3)cc2)c1` is 32%.
As to `CC(Oc1cc(-c2ccc(C(=O)N3CCN(C4CCN(C)CC4)CC3)cc2)cnc1N)c1c(Cl)ccc(F)c1Cl` [Example L-147], the inhibition at 0.05 µM was 96%.
On to `Cc1ccc(F)c(COc2cc(-c3ccc(C(=O)N4CCC(N5CCCC5)CC4)cc3)cnc2N)c1F`, for which, under “Table 7, library procedure 42”, the inhibition at 1 pM was 51%.
As for `CC(NC(=O)c1cnc(N)c(OCc2c(Cl)cccc2Cl)c1)c1ccc(O)cc1` [Example L-235], the inhibition at 1 pM (Table 6, library procedure 41) was 36%.
As to `C[C@H](Oc1cc(-c2ccc(C(=O)NC[C@H](O)c3ccccc3)cc2)cnc1N)c1c(Cl)ccc(F)c1Cl` [Example L-91], the inhibition at 0.05 µM worked out at 69%.
Regarding `Nc1ncc(C(=O)NCc2ccc(F)cc2F)cc1OCc1c(Cl)cccc1Cl` [Example L-245], the inhibition at 1 pM (Table 6, library procedure 41) was found to be 33%.
Turning to `CC(Oc1cc(-c2ccc(=O)n(CCC3CCCN3C)c2)cnc1N)c1c(Cl)ccc(F)c1Cl` (stereo not shown) [Example I-639, 6′-Amino-5′-[1-(2,6-dichloro-3-fluoro-phenyl)-ethoxy]-1-[2-(1-methyl-pyrrolidin-2-yl)-ethyl]-1H-[3,3′]bipyridinyl-6-one], the inhibition constant Ki came to 0.513 µM.
`CC1CN(C(=O)c2ccc(-c3cnc(N)c(OCc4nc(-c5ccccc5)nn4C)c3)cc2)CC(C)N1` (stereo not shown): the inhibition at 1 µM came out at 13%.
Turning to `Nc1ncc(-c2ccc(C(=O)N3CCC(N4CCCC4)CC3)cc2)cc1OCc1nc(-c2ccccn2)no1`, the inhibition at 1 pM (Table 7, library procedure 42) worked out at 9%.
For `CC(Oc1cc(-c2ccc(C(=O)N3CCC(N(C)C)C3)cc2)cnc1N)c1c(Cl)ccc(F)c1Cl` [Example L-123], the inhibition at 0.05 µM was 80%.
Turning to `CC1CN(C(=O)c2ccc(-c3cnc(N)c(OCc4ccc(F)cc4F)c3)cc2)CC(C)N1` (stereo not shown), the inhibition at 1 µM was 20%.
With `CC(Oc1cc(-c2ccc(C(=O)N(C)CCO)cc2)cnc1N)c1c(Cl)ccc(F)c1Cl` [Example L-104], the inhibition at 0.05 µM was found to be 89%.
Regarding `Nc1ncc(-c2ccc(C(=O)N3CCC(N4CCCC4)CC3)cc2)cc1OCc1cccc(CO)n1`, the inhibition at 1 pM (Table 7, library procedure 42) came to 15%.
Consider `Nc1ncc(-c2ccc(C(=O)N3CCC(N4CCCC4)CC3)cc2)cc1OCc1cccc(Oc2ccccc2)c1`, for which the inhibition at 1 pM (Table 7, library procedure 42) stood at 34%.
Regarding `COc1ccc(CNC(=O)c2cnc(N)c(OCc3c(Cl)cccc3Cl)c2)c(OC)c1` [Example L-198], under “Table 6, library procedure 41”, the inhibition at 1 pM turned out to be 59%.
With `Nc1ncc(C(=O)N2CCN(CC(=O)N3CCCCC3)CC2)cc1OCc1c(Cl)cccc1Cl` [Example L-301], under “Table 6, library procedure 41”, the inhibition at 1 pM was found to be 24%.
Turning to `CC(Oc1cc(-c2ccc(C(=O)Nc3ccc(-n4ccnc4)cc3)cc2)cnc1N)c1c(Cl)ccc(F)c1Cl` [Example L-158], the inhibition at 0.05 µM was determined as 63%.
In the case of `Nc1ncc(C(=O)NCc2ccc(F)cc2Cl)cc1OCc1c(Cl)cccc1Cl` [Example L-250], the inhibition at 1 pM (Table 6, library procedure 41) worked out at 37%.
Regarding `CC(Oc1cc(-c2ccc(C(=O)NCCCN(C)C3CCCCC3)cc2)cnc1N)c1c(Cl)ccc(F)c1Cl` [Example L-170], the inhibition at 0.05 µM was 77%.
In the case of `Nc1ncc(-c2ccc(C(=O)N3CCC(N4CCCC4)CC3)cc2)cc1OCc1ccc(C(=O)c2ccccc2)cc1`, where the note is “Table 7, library procedure 42”, the inhibition at 1 pM came to 31%.
